No end group written: not given here.
test system: methicillin-resistant Staphylococcus aureus (ATCC 33591); assay: not given; details: Tables 11-15, no unit printed
Method: First, each of Pseudomonas aeruginosa (ATCC 27853) and Staphylococcus aureus (ATCC 29213) was cultured in 3% (w/v) TSB (Tryptic Soy Broth) liquid medium at 37° C. and 200 rpm for 4 hours, and then further cultured under the same conditions for 3 hours to a concentration of 5×10^6 CFU/ml. Strain solutions were prepared by diluting each of the further cultured strains with SP (sodium phosphate; 10 mM sodium phosphate, 1% TSB) buffer to a final concentration of 2×10^5 CFU/ml.
(§1) Then, each peptide at varying concentrations (0 μg/ml to 300 μg/ml) was dispensed into each well of a 96-well microplate, and 100 μl (1×10^5 CFU/ml) of each of the prepared strain solutions was added thereto, mixed therewith, and allowed to react with the peptide in an incubator at 37° C. for 1 hour.
In addition, 30 g/L of TS (tryptic soy) and 15 g/L of agar were dissolved in distilled water and sterilized, and then 25 ml of the solution was poured onto a 100 mm round plate and solidified at room temperature for one day or more, thereby preparing a TS agar plate. 10 μl of each reaction solution of the peptide and the strain was plated on the TS agar plate at a constant size, and incubated in an incubator at 37° C. for 18 hours, and then colony formation on the plate was checked.
Specifically, each type of bacteria was cultured in 3% (w/v) TSB (Tryptic Soy Broth) liquid medium at 37° C. and 200 rpm for 4 hours, and then further cultured under the same conditions for 3 hours to a concentration of 5×10^6 CFU/ml. Strain solutions were prepared by diluting each of the […] of 2×10^5 CFU/ml.
as §1, with “Then, the KU-5878” for “Then, each”
In addition, 10 μl of each reaction solution of the peptide and the strain was plated on the TS agar plate at a constant size, and incubated in an incubator at 37° C. for 18 hours, and then colony formation on the plate was checked.

Substance | MBC MRSA [µg/mL]
KTMMQSGGTFGTF-AIG-GIR [5878-d71M, d75M] | 300
KTMMQSGGTFGTF-AIGMGIR [Peptide 5878-d71M] | 300
KTMMQSGGTFGTFM-IGMGIR [Peptide 5878-d72A] | 160
KTMMQSGGTFGTFMA-GMGIR [Peptide 5878-d73I] | > 300
KTMMQSGGTFGTFMAAGMGIR [KU-5878-I73A] | > 300
KTMMQSGGTFGTFMAI-MGIR [Peptide 5878-d74G] | 25
KTMMQSGGTFGTFMAIG-GIR [Peptide 5878-d75M] | 110
KTMMQSGGTFGTFMAIGM-IR [Peptide 5878-d76G] | 90
KTMMQSGGTFGTFMAIGMAIR [KU-5878-G76A] | > 300
KTMMQSGGTFGTFMAIGMG-R [Peptide 5878-d77I] | > 300
KTMMQSGGTFGTFMAIGMGAR [KU-5878-I77A] | > 300
KTMMQSGGTFGTFMAIGMGGR [KU-5878-I77G] | 90
KTMMQSGGTFGTFMAIGMGI- [Peptide 5878-d78R] | > 300
KTMMQSGGTFGTFMAIGMGIRKK [Peptide 5878-KK] | 16
KTMMQSGGTFGTFMAIGMGIRQ [Peptide 5878-Q] | 180
KTMMQSGGTFGTFMAIGMGIRRRR [Peptide 5878-3R] | 10

test system: CRPA; assay: MBC, evaluation of antibacterial activities of KU-5878 variants; format: cell-based; details: Tables 11-15, no unit printed
Method: Variants were prepared by deleting one amino acid from the amino acid sequence of KU-5878 (SEQ ID NO: 13), and the antibacterial activities thereof were evaluated.
Variants were prepared by deleting two or more amino acids from the amino acid sequence of KU-5878 (SEQ ID NO: 13), and the antibacterial activities thereof were evaluated.
One amino acid in the amino acid sequence of KU-5878 (SEQ ID NO: 13) was substituted, and the antibacterial activities of the peptides were evaluated.
Substitutions of Q62K, S63K and T66K were sequentially added to the amino acid sequence of KU-5878-T59K, and the antibacterial activities of the peptides were evaluated.
An amino acid repeat sequence was added to the C-terminus of KU-5878, and the antibacterial activities of the peptides were evaluated. According to Table 15 below, when the R (arginine) repeat sequence or K (lysine) sequence was added to the C-terminus of KU-5878, the antibacterial activity of the peptide increased.

Substance | MBC CRPA [µg/mL]
KTMMQSGGTFGTF-AIG-GIR [5878-d71M, d75M] | 300
KTMMQSGGTFGTF-AIGMGIR [Peptide 5878-d71M] | 300
KTMMQSGGTFGTFM-IGMGIR [Peptide 5878-d72A] | 170
KTMMQSGGTFGTFMA-GMGIR [Peptide 5878-d73I] | > 300
KTMMQSGGTFGTFMAAGMGIR [KU-5878-I73A] | > 300
KTMMQSGGTFGTFMAI-MGIR [Peptide 5878-d74G] | 30
KTMMQSGGTFGTFMAIG-GIR [Peptide 5878-d75M] | 100
KTMMQSGGTFGTFMAIGM-IR [Peptide 5878-d76G] | 90
KTMMQSGGTFGTFMAIGMAIR [KU-5878-G76A] | > 300
KTMMQSGGTFGTFMAIGMG-R [Peptide 5878-d77I] | > 300
KTMMQSGGTFGTFMAIGMGAR [KU-5878-I77A] | > 300
KTMMQSGGTFGTFMAIGMGGR [KU-5878-I77G] | 100
KTMMQSGGTFGTFMAIGMGI- [Peptide 5878-d78R] | > 300
KTMMQSGGTFGTFMAIGMGIRKK [Peptide 5878-KK] | 16
KTMMQSGGTFGTFMAIGMGIRQ [Peptide 5878-Q] | 180
KTMMQSGGTFGTFMAIGMGIRRRR [Peptide 5878-3R] | 8

test system: Staphylococcus aureus (ATCC 29213); assay: not given; format: cell-based; details: ATCC 29213, 1 h
Text: (§2) Romo1 protein comprises two α-helices. The present inventors synthesized the α-helix 2 region having both hydrophilicity and hydrophobicity, and evaluated the antibacterial activity thereof using minimum bactericidal concentration (MBC) assay. The α-helix 2 region was named KU-5279 (the 52-79 amino acid region of Romo1 protein). Then, in order to identify peptides that are beneficial for human application and have excellent antibacterial activity, the present inventors synthesized several peptides comprising a sequence of contiguous amino acids starting at any amino acid selected from the 52-79 amino acid region of Romo1 protein, and comparatively evaluated the antibacterial activities of the peptides by minimum bactericidal concentration assay (See Table 1 below for information on each peptide). Evaluation of the antibacterial activity of each peptide by minimum bactericidal concentration assay was specifically performed as follows. First, each of Pseudomonas aeruginosa (ATCC 27853) and Staphylococcus aureus (ATCC 29213) was cultured in 3% (w/v) TSB (Tryptic Soy Broth) liquid medium at 37° C. and 200 rpm for 4 hours, and then further cultured under the same conditions for 3 hours to a concentration of 5×10^6 CFU/ml. Strain solutions were prepared by diluting each of the further cultured strains with SP (sodium phosphate; 10 mM sodium phosphate, 1% TSB) buffer to a final concentration of 2×10^5 CFU/ml. Then, each peptide at varying concentrations (0 μg/ml to 300 μg/ml) was dispensed into each well of a 96-well microplate, and 100 μl (1×10^5 CFU/ml) of each of the prepared strain solutions was added thereto, mixed therewith, and allowed to react with the peptide in an incubator at 37° C. for 1 hour. In addition, 30 g/L of TS (tryptic soy) and 15 g/L of agar were dissolved in distilled water and sterilized, and then 25 ml of the solution was poured onto a 100 mm round plate and solidified at room temperature for one day or more, thereby preparing a TS agar plate. 10 μl of each reaction solution of the peptide and the strain was plated on the TS agar plate at a constant size, and incubated in an incubator at 37° C. for 18 hours, and then colony formation on the plate was checked. The minimum bactericidal concentration was defined as the minimum concentration of the peptide at which no colony was formed, and the experimental results are shown in Table 1 below.

Substance | MBC value (μg/ml) against Staphylococcus aureus [µg/mL]
KTMMQSGGTFGTFMAAGMGIR [KU-5878-I73A] | >300
KTMMQSGGTFGTFMAIGMAIR [KU-5878-G76A] | >400
KTMMQSGGTFGTFMAIGMGAR [KU-5878-I77A] | >300
KTMMQSGGTFGTFMAIGMGGR [KU-5878-I77G] | 90

same assay, conditions: Tables 11-15, no unit printed

Substance | MBC Staphylococcus aureus [µg/mL]
KTMMQSGGTFGTF-AIG-GIR [5878-d71M, d75M] | 250
KTMMQSGGTFGTF-AIGMGIR [Peptide 5878-d71M] | 250
KTMMQSGGTFGTFM-IGMGIR [Peptide 5878-d72A] | 150
KTMMQSGGTFGTFMA-GMGIR [Peptide 5878-d73I] | > 300
KTMMQSGGTFGTFMAAGMGIR [KU-5878-I73A] | > 300
KTMMQSGGTFGTFMAI-MGIR [Peptide 5878-d74G] | 25
KTMMQSGGTFGTFMAIG-GIR [Peptide 5878-d75M] | 100
KTMMQSGGTFGTFMAIGM-IR [Peptide 5878-d76G] | 70
KTMMQSGGTFGTFMAIGMAIR [KU-5878-G76A] | > 300
KTMMQSGGTFGTFMAIGMG-R [Peptide 5878-d77I] | > 300
KTMMQSGGTFGTFMAIGMGAR [KU-5878-I77A] | > 300
KTMMQSGGTFGTFMAIGMGGR [KU-5878-I77G] | 90
KTMMQSGGTFGTFMAIGMGI- [Peptide 5878-d78R] | 300
KTMMQSGGTFGTFMAIGMGIRKK [Peptide 5878-KK] | 16
KTMMQSGGTFGTFMAIGMGIRQ [Peptide 5878-Q] | 180
KTMMQSGGTFGTFMAIGMGIRRRR [Peptide 5878-3R] | 8

test system: Pseudomonas aeruginosa (ATCC 27853); assay: not given; format: cell-based; details: ATCC 27853, 1 h
Text: as §2

Substance | MBC value (μg/ml) against Pseudomonas aeruginosa [µg/mL]
KTMMQSGGTFGTFMAAGMGIR [KU-5878-I73A] | >300
KTMMQSGGTFGTFMAIGMAIR [KU-5878-G76A] | >400
KTMMQSGGTFGTFMAIGMGAR [KU-5878-I77A] | >300
KTMMQSGGTFGTFMAIGMGGR [KU-5878-I77G] | 80

same assay, conditions: Tables 11-15, no unit printed

Substance | MBC Pseudomonas aeruginosa [µg/mL]
KTMMQSGGTFGTF-AIG-GIR [5878-d71M, d75M] | 300
KTMMQSGGTFGTF-AIGMGIR [Peptide 5878-d71M] | 250
KTMMQSGGTFGTFM-IGMGIR [Peptide 5878-d72A] | 150
KTMMQSGGTFGTFMA-GMGIR [Peptide 5878-d73I] | > 300
KTMMQSGGTFGTFMAAGMGIR [KU-5878-I73A] | > 300
KTMMQSGGTFGTFMAI-MGIR [Peptide 5878-d74G] | 20
KTMMQSGGTFGTFMAIG-GIR [Peptide 5878-d75M] | 100
KTMMQSGGTFGTFMAIGM-IR [Peptide 5878-d76G] | 80
KTMMQSGGTFGTFMAIGMAIR [KU-5878-G76A] | > 300
KTMMQSGGTFGTFMAIGMG-R [Peptide 5878-d77I] | > 300
KTMMQSGGTFGTFMAIGMGAR [KU-5878-I77A] | > 300
KTMMQSGGTFGTFMAIGMGGR [KU-5878-I77G] | 80
KTMMQSGGTFGTFMAIGMGI- [Peptide 5878-d78R] | 300
KTMMQSGGTFGTFMAIGMGIRKK [Peptide 5878-KK] | 15
KTMMQSGGTFGTFMAIGMGIRQ [Peptide 5878-Q] | 150
KTMMQSGGTFGTFMAIGMGIRRRR [Peptide 5878-3R] | 8

Source: patent US12053506B2, “Romo1-derived antimicrobial peptides and variants thereof” (priority 2019, dated 2024)
